Experimental data taken from patent US10222368B2 (priority 2012, dated 2019).

Molecular target: T1, mu opiate receptor (MOR) (Rattus norvegicus, UniProt P33535)
T1 construct: from tissue; host or cells: striatal tissue (membrane preparation)
Assay: MOR agonist activity using [35S]GTPγS binding assay in striatal membranes
Assay type: biochemical
Conditions: for MOR agonist activity, [35S]GTPγS binding, FLNA-binding compound as agonist at 0.1 μM / MOR agonist activity, [35S]GTPγS binding, 1 μM + BFNA / MOR agonist activity, [35S]GTPγS binding, FLNA-binding compound as agonist at 1 μM: striatal membranes; for MOR agonist activity, [35S]GTPγS binding, FLNA-binding compound as agonist at 0.1 μM / MOR agonist activity, [35S]GTPγS binding, FLNA-binding compound as agonist at 1 μM: Series C-2; for MOR agonist activity, [35S]GTPγS binding, 1 μM + BFNA: 1 μM compound + 1 μM β-FNA (MOR antagonist); for MOR agonist activity ([35S]GTPγS binding to Gαo), preliminary study: average of two runs; for % DAMGO + BFNA: 1 μM compound + BFNA, relative to DAMGO + BFNA
Method: To assess the mu opiate receptor (MOR) agonist activity of positive compounds from the FLNA screening, compounds were tested in a [^35S]GTPγS binding assay using striatal membranes. […] This assay measures a functional consequence of receptor occupancy at one of the earliest receptor-mediated events. The assay permits for traditional pharmacological parameters of potency, efficacy and antagonist affinity, with the advantage that agonist measures are not subjected to amplification or other modulation that may occur when analyzing parameters further downstream of the receptor.
Thus, striatal tissue was homogenized in 10 volumes of ice cold 25 mM HEPES buffer, pH 7.4, which contained 1 mM EGTA, 100 mM sucrose, 50 μg/ml leupeptin, 0.04 mM PMSF, 2 μg/ml soybean trypsin inhibitor and 0.2% 2-mercaptoethanol. The homogenates were centrifuged at 800×g for 5 minutes and the supernatants were centrifuged at 49,000×g for 20 minutes.
The resultant striatal membrane preparation (200 μg) was admixed and maintained (incubated) at 30° C. for 5 minutes in reaction buffer as above that additionally contained 1 mM MgCl2 and 0.5 nM [^35S]GTPγS (0.1 μCi/assay, PerkinElmer Life and Analytical Sciences) in a total volume of 250 μl and continued for 5 minutes in the absence or presence of 0.1-10 μM of an assayed compound of interest. The reaction was terminated by dilution with 750 μl of ice-cold reaction buffer that contained 20 mM MgCl2 and 1 mM EGTA and immediate centrifugation at 16,000×g for 5 minutes.
Normal rabbit serum (1 μl) was added to 1 ml of lysate and incubated at 25° C. for 30 minutes. Nonspecific immune complexes were removed by incubation with 25 μl of protein A/G-conjugated agarose beads at 25° C. for 30 minutes followed by centrifugation at 5,000×g at 4° C. for 5 minutes. The supernatant was divided and separately incubated at 25° C. for 30 minutes with antibodies raised against Gαo proteins (1:1,000 dilutions).
The immunocomplexes so formed were collected by incubation at 25° C. for 30 minutes with 40 μl of agarose-conjugated protein A/G beads and centrifugation at 5,000×g at 4° C. for 5 minutes. The pellet was washed and suspended in buffer containing 50 mM Tris-HCl, pH 8.0, and 1% NP-40. The radioactivity in the suspension was determined by liquid scintillation spectrometry.

[1] = Series C-1, 0.1 μM compound relative to DAMGO (0.1 μM)
[2] = 0.1 μM compound, relative to DAMGO
[3] = 1 μM compound, relative to DAMGO

T1 sequence (P33535 whole entry): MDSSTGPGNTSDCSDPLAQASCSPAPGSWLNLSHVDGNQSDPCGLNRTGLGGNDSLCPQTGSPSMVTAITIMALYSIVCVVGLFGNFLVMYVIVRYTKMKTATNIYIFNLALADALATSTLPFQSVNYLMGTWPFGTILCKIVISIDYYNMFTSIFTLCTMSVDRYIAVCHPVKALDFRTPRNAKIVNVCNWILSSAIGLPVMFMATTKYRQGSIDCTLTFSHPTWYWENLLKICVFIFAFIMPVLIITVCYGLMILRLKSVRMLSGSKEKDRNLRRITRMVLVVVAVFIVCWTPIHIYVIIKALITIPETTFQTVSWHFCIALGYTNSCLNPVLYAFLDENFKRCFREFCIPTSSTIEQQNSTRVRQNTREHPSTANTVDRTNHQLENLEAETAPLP

Structure (SMILES)	MOR agonist activity, [35S]GTPγS binding, FLNA-binding compound as agonist at 0.1 μM (0.1 μM compound) [%]	MOR agonist activity, [35S]GTPγS binding, 1 μM + BFNA [%]	MOR agonist activity, [35S]GTPγS binding, FLNA-binding compound as agonist at 1 μM (1 μM compound) [%]	other results
CCN1CCC2(CC1)OCCN2S(=O)(=O)c1ccc(C(C)=O)cc1 [Compound C0094M]	172.5	115.3	263.5	
Cc1cccc(S(=O)(=O)N2CCC3(CC2)OCCN3S(=O)(=O)c2cccc(C)c2)c1 [Compound C0014]				% DAMGO (0.1 μM) [1]: 82.0%
COc1ccc(S(=O)(=O)N2CCC3(NCCO3)C3CCCCC32)cc1 (centres unmarked) [Compound C0144M-2]	186.3	125.9	295.9	
O=C1CN(Cc2ccccc2)C2(CCN(CC3CC3)CC2)N1 [Compound C0125M]	168.6	159.7	195.2	
Cc1ccc(S(=O)(=O)N2CCOC23CCN(CC2CC2)CC3)cc1 [Compound C0134M]	158.5	46.6	207.3	MOR agonist activity ([35S]GTPγS binding to Gαo), preliminary study (0.1 μM compound as agonist): 150.7%; % DAMGO (0.1 μM) [2]: 94.6%; MOR agonist activity ([35S]GTPγS binding to Gαo), preliminary study (1 μM + βNFA): 53.2%; % DAMGO + BFNA: 98.1%; MOR agonist activity ([35S]GTPγS binding to Gαo), preliminary study (1 μM compound as agonist): 224.0%; % DAMGO (1 μM) [3]: 93.3%
CS(=O)(=O)c1ccc(S(=O)(=O)N2CCOC23CCNCC3)cc1 [Compound C0116M]	258.4	152.0	302.8	
C=CCN1CCC2(CC1)OCCN2S(=O)(=O)c1ccc(OC)cc1 [Compound C0091M]	207.9	80.8	274.4	
COc1ccc(S(=O)(=O)N2CCOC23CCN(C(=O)OC(C)(C)C)CC3)cc1 [Compound C0043]	175.4	83.3	242.6	
CN1CCC2(CC1)NC(=O)CN2Cc1ccccc1 [Compound C0104M]	188.2	143.8	238.9	
CC(=O)c1ccc(S(=O)(=O)N2CCOC23CCN(C)CC3)cc1 [Compound C0093M]	140.0	44.0	211.8	
CN1CCC2(CC1)OCCN2S(=O)(=O)c1ccc(S(C)(=O)=O)cc1 [Compound C0106M]	171.8	117.2	240.7	
CCCCN1CCC2(CC1)OCCN2S(=O)(=O)c1ccc(C(C)=O)cc1 [Compound C0101M]	138.2	174.8	274.3	
O=[N+]([O-])c1ccc(S(=O)(=O)N2CCC3(CC2)NCCS3)cc1 [Compound C0044]	173.7	59.1	280.1	
CC(=O)c1ccc(S(=O)(=O)N2CCOC23CCN(CC(=O)O)CC3)cc1 [Compound C0100M]	173.6	195.6	245.9	
O=C1CN(Cc2ccccc2)C2(CCNCC2)N1 [Compound C0115M]	177.2	118.4	226.8	
CCCCc1ccc(S(=O)(=O)N2CCC3(CC2)OCCN3S(=O)(=O)c2ccc(CCCC)cc2)cc1 [Compound C0030]				% DAMGO (0.1 μM) [1]: 96.0%; % DAMGO (1 μM) (Series C-1, 1 μM compound relative to DAMGO (1 μM)): 98.0%
O=S(=O)(c1cccc2cccnc12)N1CCC2(CC1)OCCN2S(=O)(=O)c1cccc2cccnc12 [Compound C0143M]	81.0	86.5	193.3	
CC(=O)c1ccc(S(=O)(=O)N2CCC3(CC2)NC(=O)CO3)cc1 [Compound C0087M]	262.8	142.5	329.6	% DAMGO (0.1 μM) [2]: 138.9%; % DAMGO + BFNA: 293.8%; % DAMGO (1 μM) [3]: 132.8%
C[C@@H](NC(=O)[C@@H](N)Cc1ccc(O)cc1)C(=O)NCC(=O)N(C)[C@@H](Cc1ccccc1)C(=O)NCCO [DAMGO, [D-Ala2, N-MePhe4, Gly-ol]-enkephalin, reference compound]	168.5	53.2	266.1	MOR agonist activity ([35S]GTPγS binding to Gαo), preliminary study (0.1 μM compound as agonist): 144.7%; MOR agonist activity ([35S]GTPγS binding to Gαo), preliminary study (1 μM + βNFA): 56.8%; MOR agonist activity ([35S]GTPγS binding to Gαo), preliminary study (1 μM compound as agonist): 233.4%
CC(=O)Nc1ccc(S(=O)(=O)N2CCC3(CC2)OCCN3S(=O)(=O)c2ccc(NC(C)=O)cc2)cc1 [Compound C0013]				% DAMGO (0.1 μM) [1]: 91.0%
CC(=O)c1ccc(S(=O)(=O)N2CCC3(CC2)NCCS3)cc1 [Compound C0060]	166.5	143.9	218.9	
CC(=O)N1CCSC12CCN(S(=O)(=O)c1ccc([N+](=O)[O-])cc1)CC2 [Compound C0050]	110.3	59.0	127.6	
C=CCN1CCC2(CC1)OCCN2S(=O)(=O)c1ccc(C(C)=O)cc1 [Compound C0096M]	186.4	127.1	328.9	% DAMGO (1 μM) [3]: 130.0%
CC(=O)c1ccc(S(=O)(=O)N2CCOC23CCN(CC2CC2)CC3)cc1 [Compound C0095M]	189.1	107.7	224.6	
O=[N+]([O-])c1ccc(S(=O)(=O)N2CCC3(CC2)NCCCO3)cc1 [Compound C0045]	149.2	105.3	238.8	
COc1ccc(S(=O)(=O)N2CCC3(CC2)NCCC(=O)N3)cc1 [Compound C0142M]	143.7	98.7	192.5	
CC(=O)c1ccc(S(=O)(=O)N2CCC3(CC2)OCCN3S(=O)(=O)c2ccc(C(C)=O)cc2)cc1 [Compound C0011]	217.0	19.0	305.0	
COc1ccc(S(=O)(=O)N2CCSC23CCNCC3)cc1 [S-C0027]	156.2	56.2	286.8	
CCc1ccc(S(=O)(=O)N2CCOC23CCN(CC2CC2)CC3)cc1 [Compound C0135M]	161.3	113.3	310.1	
